Reference: article PMC3529200 (Bioorganic & medicinal chemistry letters, 2010)

What was measured:
dog pharmacokinetics = settings: up to 500 mg/kg in dogs
CYP2J = experiment: CYP inhibition
CYP2B6 = target: T1, CYP2B6 (Homo sapiens, UniProt P20813); experiment: CYP inhibition
T1 sequence (P20813 1-491): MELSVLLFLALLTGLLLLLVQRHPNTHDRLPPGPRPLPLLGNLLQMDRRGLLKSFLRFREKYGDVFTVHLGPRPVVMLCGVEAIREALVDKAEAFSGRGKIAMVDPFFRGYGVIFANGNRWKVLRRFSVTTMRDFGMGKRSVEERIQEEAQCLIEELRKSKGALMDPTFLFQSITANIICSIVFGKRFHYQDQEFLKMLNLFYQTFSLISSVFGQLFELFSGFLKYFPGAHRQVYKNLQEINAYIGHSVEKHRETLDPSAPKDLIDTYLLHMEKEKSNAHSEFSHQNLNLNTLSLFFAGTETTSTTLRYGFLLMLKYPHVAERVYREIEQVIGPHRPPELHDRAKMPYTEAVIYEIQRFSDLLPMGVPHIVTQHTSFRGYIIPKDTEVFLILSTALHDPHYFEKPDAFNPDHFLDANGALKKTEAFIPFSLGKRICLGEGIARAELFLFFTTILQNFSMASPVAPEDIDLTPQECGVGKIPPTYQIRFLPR

[1] = tested on: ca.150 other enzyme and receptor targets; experiment: selectivity panel of ca.150 other enzyme and receptor targets; settings: tested at 10 μM
CYP2C9 = CYP2C9 (Homo sapiens, UniProt P11712); experiment: CYP inhibition
Sequence of CYP2C9 (P11712 whole entry, the tested form may be a part): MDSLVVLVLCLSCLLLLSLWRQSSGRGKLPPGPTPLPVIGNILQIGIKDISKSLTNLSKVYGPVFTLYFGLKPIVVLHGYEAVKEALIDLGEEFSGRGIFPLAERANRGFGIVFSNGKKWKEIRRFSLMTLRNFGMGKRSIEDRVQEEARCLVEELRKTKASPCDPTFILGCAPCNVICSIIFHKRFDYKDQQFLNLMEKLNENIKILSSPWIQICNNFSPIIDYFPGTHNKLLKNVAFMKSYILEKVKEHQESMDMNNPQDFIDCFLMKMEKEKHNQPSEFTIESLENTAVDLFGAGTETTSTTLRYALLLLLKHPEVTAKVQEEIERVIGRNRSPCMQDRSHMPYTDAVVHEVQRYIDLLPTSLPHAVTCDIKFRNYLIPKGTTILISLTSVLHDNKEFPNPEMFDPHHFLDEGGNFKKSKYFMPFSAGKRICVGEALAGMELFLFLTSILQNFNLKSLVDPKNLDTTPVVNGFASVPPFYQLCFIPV

[2] = tested on: AngII-induced hypertension; experiment: AngII-infused rat model of hypertension; assay type: in vivo, Sprague-Dawley rats; settings: 50 mg/kg orally twice daily
[3] = tested on: impaired glucose tolerance; experiment: diet induced-obesity; assay type: in vivo, C57Bl/6 mice; settings: 100 mg/kg oral twice a day, after 4 weeks, ip glucose 2 g/kg 4 hours after dose
CYP3A4 = CYP3A4 (Homo sapiens, UniProt P08684); experiment: CYP inhibition
Sequence of CYP3A4 (P08684 whole entry): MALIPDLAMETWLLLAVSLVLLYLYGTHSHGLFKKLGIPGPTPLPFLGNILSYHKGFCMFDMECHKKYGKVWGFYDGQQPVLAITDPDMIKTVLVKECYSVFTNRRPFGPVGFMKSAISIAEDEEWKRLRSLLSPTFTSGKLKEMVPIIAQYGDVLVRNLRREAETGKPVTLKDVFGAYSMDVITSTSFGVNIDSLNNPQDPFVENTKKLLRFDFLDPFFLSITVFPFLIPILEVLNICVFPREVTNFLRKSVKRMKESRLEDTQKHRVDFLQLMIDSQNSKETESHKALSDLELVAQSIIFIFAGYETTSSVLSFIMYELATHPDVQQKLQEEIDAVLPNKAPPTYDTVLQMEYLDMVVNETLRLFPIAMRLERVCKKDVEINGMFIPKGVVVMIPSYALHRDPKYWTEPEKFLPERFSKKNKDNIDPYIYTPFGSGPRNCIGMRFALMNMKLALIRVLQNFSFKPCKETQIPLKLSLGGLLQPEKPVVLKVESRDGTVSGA

[4] = early animal and human dose range finding toxicology studies; cited from earlier work
CYP2C = experiment: CYP inhibition
[5] = cynomolgus monkey pharmacokinetics; settings: up to 180 mg/kg in cynomolgus monkeys
[6] = pharmacokinetics, species not specified; settings: in vivo
Caco-2 monolayer = Caco-2 monolayer permeability
CYP2C19 = CYP2C19 (Homo sapiens, UniProt P33261); experiment: CYP inhibition
Sequence of CYP2C19 (P33261 whole entry): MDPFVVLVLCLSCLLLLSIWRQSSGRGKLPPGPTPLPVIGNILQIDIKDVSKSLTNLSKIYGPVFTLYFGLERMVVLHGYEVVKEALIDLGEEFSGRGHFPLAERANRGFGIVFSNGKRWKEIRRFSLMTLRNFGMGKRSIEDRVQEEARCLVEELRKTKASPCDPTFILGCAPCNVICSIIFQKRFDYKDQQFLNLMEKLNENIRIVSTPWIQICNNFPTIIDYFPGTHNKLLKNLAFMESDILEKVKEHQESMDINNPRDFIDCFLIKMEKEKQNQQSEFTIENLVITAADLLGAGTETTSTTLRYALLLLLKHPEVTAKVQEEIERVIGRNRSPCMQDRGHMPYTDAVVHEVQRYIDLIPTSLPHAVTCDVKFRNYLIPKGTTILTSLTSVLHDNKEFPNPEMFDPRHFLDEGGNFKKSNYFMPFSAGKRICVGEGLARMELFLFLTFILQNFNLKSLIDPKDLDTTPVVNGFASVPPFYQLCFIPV

rat pharmacokinetics = settings: up to 2000 mg/kg in rats
CYP1A2 = target: T2, CYP1A2 (Homo sapiens, UniProt P05177); experiment: CYP inhibition
T2 sequence (P05177 1-516): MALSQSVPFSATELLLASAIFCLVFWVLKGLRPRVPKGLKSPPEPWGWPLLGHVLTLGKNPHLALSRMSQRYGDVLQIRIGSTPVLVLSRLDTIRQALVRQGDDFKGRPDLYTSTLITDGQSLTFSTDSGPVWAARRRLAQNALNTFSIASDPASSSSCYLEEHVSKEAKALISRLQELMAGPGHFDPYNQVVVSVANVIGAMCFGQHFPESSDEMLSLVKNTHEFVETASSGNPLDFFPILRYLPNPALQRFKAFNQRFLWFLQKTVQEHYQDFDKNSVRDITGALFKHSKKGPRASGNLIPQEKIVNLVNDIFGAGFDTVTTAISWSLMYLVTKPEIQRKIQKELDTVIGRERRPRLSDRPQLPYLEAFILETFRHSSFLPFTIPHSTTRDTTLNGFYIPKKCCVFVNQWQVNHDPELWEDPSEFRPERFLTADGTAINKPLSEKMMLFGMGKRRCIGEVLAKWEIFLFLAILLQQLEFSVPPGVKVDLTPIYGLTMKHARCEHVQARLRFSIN

CC(=O)N1CCC(NC(=O)NC23CC4CC(CC(C4)C2)C3)CC1 [Compound 14a, 1-(1-Acetyl-piperidin-4-yl)-3-adamantan-1-yl-urea]
oral exposure (AUC) versus dose (dog pharmacokinetics): increased in approximate proportion to dose
inhibition of CYP2J (CYP2J): No significant inhibition
inhibition of CYP2B6 (CYP2B6): No significant inhibition
inhibitory activity against panel of ca.150 other enzyme and receptor targets [1]: no inhibitory activity
inhibition of CYP2C9 (CYP2C9): No significant inhibition
effect on diastolic pressure [2]: more modest effect
glucose AUC versus vehicle-treated animals [3]: lower
maximal glucose excursion versus vehicle-treated animals [3]: lower
inhibition of CYP3A4 (CYP3A4): No significant inhibition
tolerability [4]: well tolerated
inhibition of CYP2C (CYP2C): No significant inhibition
oral exposure (AUC) versus dose [5]: increased in approximate proportion to dose
clearance [6]: relatively moderate to high
half life [6]: short
permeability across a Caco-2 monolayer (Caco-2 monolayer): highly permeable
inhibition of CYP2C19 (CYP2C19): No significant inhibition
oral exposure (AUC) versus dose (rat pharmacokinetics): increased in approximate proportion to dose
inhibition of CYP1A2 (CYP1A2): No significant inhibition
fraction unbound (plasma protein binding): 0.39 to 0.42
